Values after ≈ are worked out from the molar mass of the structure shown. Like-named read-outs stand apart in the source and are kept apart here.
Legend:
human TPOR = target: T1, human TPOR (Homo sapiens, UniProt P40238); experiment: Proliferation effect on BAF3-TPOR cell (CCK-8); type: cell-based; settings: rate relative to rhTPO positive control
T1 construct: host or cells: BaF3 (murine pro-B cells), stably transfected, G418-selected
T1 sequence (P40238 26-635): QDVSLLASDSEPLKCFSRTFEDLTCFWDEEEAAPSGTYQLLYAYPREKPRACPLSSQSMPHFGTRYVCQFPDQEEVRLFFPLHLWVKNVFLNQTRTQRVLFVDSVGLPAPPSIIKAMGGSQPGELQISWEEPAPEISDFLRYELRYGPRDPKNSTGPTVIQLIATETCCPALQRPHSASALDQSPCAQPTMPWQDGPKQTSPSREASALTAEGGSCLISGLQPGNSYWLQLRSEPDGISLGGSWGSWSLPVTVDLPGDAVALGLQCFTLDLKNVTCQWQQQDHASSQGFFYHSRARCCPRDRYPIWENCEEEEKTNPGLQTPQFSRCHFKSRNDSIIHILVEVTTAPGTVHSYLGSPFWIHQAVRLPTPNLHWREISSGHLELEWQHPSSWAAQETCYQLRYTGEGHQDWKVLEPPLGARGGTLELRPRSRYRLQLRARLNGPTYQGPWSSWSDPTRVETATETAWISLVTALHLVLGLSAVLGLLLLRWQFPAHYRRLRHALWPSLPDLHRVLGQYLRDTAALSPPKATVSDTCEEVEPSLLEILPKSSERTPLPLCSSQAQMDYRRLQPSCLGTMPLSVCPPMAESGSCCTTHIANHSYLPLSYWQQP
Description: (1) Plasmid constructs: based on the TPO receptor (TPOR) sequence information from Entrez (Gene ID: 4325, Refseq: NM_005373), dual-site mutation was performed on EX-B0010-M02 plasmid by using QuikChange® Multi Site Directed Mutagenesis Kit (Stratagene). The sequence of primers containing multi-sites mutation was designed as follows: […]
The E. coli DH5α competent cells were transformed with mutated plasmid, and positive colonies were picked up through ampicillin selection. The mutation result was confirmed by sequence analysis.
(2) BAF3-TPOR stable transfected cell line: the following method was used to construct the BaF3 cell which stably over-expressed functional human TPOR. The successfully mutated EX-B0010-M02 plasmid ([…]) which expressed human TPOR and screening gene neomycin was transfected into wild-type BaF3 cells (1×10^7) by electroporation at 250V for 18 ms using an electric pulse generator (Electro Square Porator ECM830, BTX Division of Genetronic, Inc. US). The stable transfected cells BAF3-TPOR were selected with G418 (Gibco, US), then incubated in RPMI1640 medium plus 10% FBS (Gibco, US), […] G418, 5 ng/mL, rmIL-3 (Chemicon, US).
(1) Washing cells by centrifugation: a suitable amount of cell suspension was centrifuged at 1000 rpm for 5 minutes, and the supernatant was discarded. 10 mL of cell culture media without IL-3 was added. Then the resulting cell suspension was centrifuged at 1000 rpm for 5 minutes, and the supernatant was discarded.
(2) 1 mL of cell culture media without IL-3 was added to beat upon them to equality, and the number of a suitable amount of cell suspension was counted after dilution.
(3) According to the result of the cell counting, a cell suspension in a concentration of 100,000 cell/mL was prepared.
(4) 100 μL of cell suspension was transferred to each well of 96-well culture plate, and there were 3 parallel wells, that is, there were a blank control group (B), a negative control group (N), a positive control group of TPO (P) and a test compound group (S).
(5) The test compound was dissolved in DMSO to prepare a 10 mM stock solution, and then the solution was diluted with RPMI 1640 medium into a series of test samples at different concentration: 30 μM, 10 μM, 3 μM, 1 μM, 0.3 μM, 0.1 μM, 0.03 μM, 0.01 μM, 0.003 μM, 0.001 μM.
(6) 10 μL of test compound solution was transferred to each well respectively; 1 μL of rhTPO (10 ng/mL) was added to positive control well.
(7) The plates were incubated in an incubator at 5% CO2 and 37° C. for 24 hours.
(8) After incubation, 10 μL of CCK-8 solution was added to each well and the plates were incubated in the incubator for another 24 hours.
(9) OD value was detected at 450 nm by VICTORS (Perkin Elmer 1420-120) plate reader.
(1) The proliferation rate was calculated as follows: Rate=[(S−B)/(P−B)]*100%
S: OD value of wells which contain test compound.
B: OD value of blank control wells
P: OD value of positive control wells
(2) The EC50 value was calculated by Origin 7.0 software.

[1] = Solubility assay in water, 0.1% hydrochloric acid and methanol; type: physicochemical
Description: The solubility was characterized by:
The term “very soluble” refers to that 1 g (mL) of solute can be dissolved in less than 1 mL of solvent;
The term “freely soluble” refers to that 1 g (mL) of solute can be dissolved in from 1 mL to 10 mL, not including 10 mL of solvent;
The term “soluble” refers to that 1 g (mL) of solute can be dissolved in from 10 mL to 30 mL, not including 30 mL of solvent;
The term “sparingly soluble” refers to that 1g (mL) of solute can be dissolved in from 30 mL to 100 mL, not including 100 mL of solvent;
The term “slightly soluble” refers to that 1g (mL) of solute can be dissolved in from 100 mL to 1000 mL, not including 1000 mL of solvent;
The term “very slightly soluble” refers to that 1g (mL) of solute can be dissolved in from 1000 mL to 10000 mL, not including 10000 mL of solvent;
The term “practically insoluble or insoluble” refers to that 1g (mL) of solute cannot be dissolved completely in 10000 mL of solvent.

[2] = Pharmacokinetics assay in rats; type: in vivo, SD rats; settings: SD rats, intragastric, 50 mg/Kg (as free acid); for Vd/F / AUC / CL/F / half-life / MRT / Cmax / Tmax: both sexes, rat, po; for Vd/F: read-out: Apparent Distribution Volume Vz/F; for AUC: read-out: Area Under Curve AUC; for CL/F: read-out: Clearance CL/F (converted); for half-life: read-out: Half-Life t½ (converted); for MRT: read-out: Mean Residence Time MRT; for Cmax: read-out: Plasma Conc. Cmax; for Tmax: read-out: Time to peak Tmax
Description: The compounds of the present disclosure were administrated intragastrically to rats to determine the drug concentration in plasma at different time points by HPLC-UV. The pharmacokinetic behavior of the compounds of the present disclosure was studied and evaluated in rats. […] Healthy adult SD rats, male and female in half, were purchased from SINO-BRITSH SIPPR/BK LAB.ANIMAL LTD., Colo., License number: SCXK (Shanghai) 2003-0002 The test compound was diluted with 1% sodium carboxymethyl cellulose to 5 mg/mL (calculated as the free acid form) of suspension before use. Healthy adult SD rats, male and female in half, were divided into 23 groups. […] The plasma samples were stored at −20° C. until analysis. The rats were fed 2 hours after administration. […] Then the mixture was mixed for 3 minute using a vortexer and centrifuged for 10 minutes at 13,500 rpm. 40 μL of the supernatant was analyzed by HPLC-UV. The compartmental model of pharmacokinetics was fitted for the test compounds and the major pharmacokinetic parameters were calculated in which Cmax and tmax were the actually measured values.

[3] = 0.1% hydrochloric acid, simulated gastric fluid, 0.1% hydrochloric acid, read-out: solubility
[4] = methanol, organic solvent or mixture, methanol, read-out: solubility

Compound | Mean Residence Time MRT ([2]; 50 mg/kg) [h] | solubility ([1]; water, read-out: solubility) [µg/mL] | EC50 (human TPOR) [nM] | solubility [1, 3] [µg/mL] | solubility ([1]; methanol) [µg/mL] | solubility ([1]; water) [µg/mL] | Area Under Curve AUC ([2]; 50 mg/kg) [ng·h/mL] | Clearance CL/F ([2]; 50 mg/kg) [mL/min/kg] | Half-Life t½ ([2]; 50 mg/kg) [h] | Plasma Conc. Cmax ([2]; 50 mg/kg) [ng/mL] | Time to peak Tmax ([2]; 50 mg/kg) [h] | solubility [1, 4] [µg/mL] | Vd/F ([2]; SD, plasma, 50 mg/kg) [L/kg] | AUC ([2]; SD, plasma, 50 mg/kg) [ng·h/mL] | half-life ([2]; SD, plasma, 50 mg/kg) [h] | MRT ([2]; SD, plasma, 50 mg/kg) [h] | Cmax ([2]; SD, plasma, 50 mg/kg) [ng/mL] | Tmax ([2]; SD, plasma, 50 mg/kg) [h] | further results
CC1=NN(c2ccc3c(c2)CCC3)C(=O)/C1=N\Nc1cccc(-c2cccc(C(=O)O)c2)c1O [Example 1j, (Z)-2′-hydroxy-3′-[N′-(1-indan-5-yl-3-methyl-5-carbonyl-1,5-dihydro-pyrazol-4-ylidene)-hydrazino]-biphenyl-3-carboxylic acid] | 3.89 ± 1.78 |  | 200 | < 1 | <1 | <1 | 131000 ± 47000 | 0.817 ± 0.583 | 4.21 ± 1.86 | 29050 ± 11440 | 4.00 ± 1.41 |  |  |  |  |  |  |  | 
CC1=NN(c2ccc3c(c2)C(C)(C)CC3)C(=O)/C1=N\Nc1cccc(-c2ccc(C(=O)O)o2)c1O [Example 4h, (Z)-5-(3-{N′-[1-(3,3-dimethyl-indan-5-yl)-3-methyl-5-oxo-1,5-dihydro-pyrazol-4-ylidene]-hydrazino}-2-hydroxy-phenyl)-furan-2-carboxylic acid] | 31.7 ± 24.6 | < 1 | 32 | < 1 | <1 |  | 9500 ± 8300 | 54.3 ± 32.2 | 19.8 ± 16.4 | 1290 ± 380 |  |  |  |  |  |  |  | 2.5 ± 1 | 
CC1=NN(c2ccc3c(c2)CCCC3)C(=O)/C1=N\Nc1cccc(-c2ccc(C(=O)[O-])o2)c1[O-].[Na+].[Na+] [Example 14, (Z)-5-(2-hydroxy-3-{N′-[3-methyl-5-oxo-1-(5,6,7,8-tetrahydro-naphthalen-2-yl)-1,5-dihydro-pyrazol-4-ylidene]-hydrazino}-phenyl)-furan-2-carboxylic acid disodium salt] |  | 1880 | 19 | < 1 |  |  |  |  |  |  |  | 3720 | 9.54 ± 8.03 | 132000 ± 189000 | 4.72 ± 2.82 | 7.2 ± 2.13 | 17800 ± 22600 | 5.25 ± 1.5 | CL/F ([2]; in vivo): 40 mL/min/kg
CC1=NN(c2ccc3c(c2)CCC3)C(=O)/C1=N\Nc1cccc(-c2ccc(C(=O)O)o2)c1O [Example 16a, (Z)-5-{2-hydroxy-3-[N′-(1-indan-5-yl-3-methyl-5-oxo-1,5-dihydro-pyrazol-4-ylidene)-hydrazino]-phenyl}-furan-2-carboxylic acid] |  |  | 100 | < 1 | <1 | <1 | 15000 ± 17200 | 49.7 ± 45.8 | 1.82 ± 0.68 | 6810 ± 6230 |  |  |  |  |  | 4.03 ± 2.55 |  | 2.75 ± 0.96 | 

Further lines, with some results ahead:

Mean Residence Time MRT ([2]; 50 mg/kg) [h] | solubility ([1]; water, read-out: solubility) [µg/mL] | Compound | EC50 (human TPOR) [nM] | solubility [1, 3] [µg/mL] | solubility ([1]; methanol) [µg/mL] | solubility ([1]; water) [µg/mL] | Area Under Curve AUC ([2]; 50 mg/kg) [ng·h/mL] | Clearance CL/F ([2]; 50 mg/kg) [mL/min/kg] | Half-Life t½ ([2]; 50 mg/kg) [h] | Plasma Conc. Cmax ([2]; 50 mg/kg) [ng/mL] | Time to peak Tmax ([2]; 50 mg/kg) [h] | solubility [1, 4] [µg/mL] | Vd/F ([2]; SD, plasma, 50 mg/kg) [L/kg] | AUC ([2]; SD, plasma, 50 mg/kg) [ng·h/mL] | half-life ([2]; SD, plasma, 50 mg/kg) [h] | MRT ([2]; SD, plasma, 50 mg/kg) [h] | Cmax ([2]; SD, plasma, 50 mg/kg) [ng/mL] | Tmax ([2]; SD, plasma, 50 mg/kg) [h] | further results
 | 2900 | CC1=NN(c2ccc3c(c2)C(C)(C)CC3)C(=O)/C1=N\Nc1cccc(-c2ccc(C(=O)O)o2)c1O.NCCO.NCCO [Example 4, (Z)-5-(3-{N′-[1-(3,3-dimethyl-indan-5-yl)-3-methyl-5-oxo-1,5-dihydro-pyrazol-4-ylidene]-hydrazino}-2-hydroxy-phenyl)-furan-2-carboxylic acid bis-(ethanolamine)] | 25 | 24 |  |  |  |  |  |  |  | 19000 | 58.1 ± 47.7 | 19000 ± 12600 | 27 ± 31.5 | 38.3 ± 36.5 | 2320 ± 1800 | 2.25 ± 2.47 | CL/F ([2]; SD, plasma, 50 mg/kg): 40.3 mL/min/kg
60.4 ± 90.2 |  | CC1=NN(c2ccc3c(c2)C(C)(C)CC3)C(=O)/C1=N\Nc1cccc(-c2ccc(C(=O)O)o2)c1O [Example 6, (Z)-5-(3-{N′-[1-(3,3-dimethyl-indan-5-yl)-3-methyl-5-oxo-1,5-dihydro-pyrazol-4-ylidene]-hydrazino}-2-hydroxy-phenyl)-furan-2-carboxylic acid bis-(piperazine)] | 36 |  | 3009 (≈ 6370 µM) | 1 (≈ 2.12 µM) | 175000 ± 41000 | 5 ± 1.4 | 45.0 ± 70.3 | 13000 ± 6500 | 2.5 ± 1.0 |  |  |  |  |  |  |  | solubility ([1]; 0.1% hydrochloric acid): <1 µg/mL

Reference: patent US9120762B2, “Salts of bicyclo-substituted pyrazolon azo derivatives, preparation method and use thereof” (Jiangsu Hengrui Medicine Co., Ltd., priority 2009, dated 2015)
